Measurements reported in patent publication US20080287430A1, “Furan Compounds Useful As Ep1 Receptor Antagonists” (priority 2005, published 2008).
Structures can show the parent of a compound that is named as a salt.

target: T1, human EP1 receptor (Homo sapiens, UniProt P34995); assay: human EP1 calcium mobilisation assay; format: cell-based; conditions: human EP1, PGE2-induced calcium mobilisation in CHO-K1 cells; free bases or sodium salts; averages of a number of experiments; read-out: functional pKi value (converted)
T1 construct: expressed in transfected cells; host or cells: CHO-K1
T1 sequence (P34995 1-402): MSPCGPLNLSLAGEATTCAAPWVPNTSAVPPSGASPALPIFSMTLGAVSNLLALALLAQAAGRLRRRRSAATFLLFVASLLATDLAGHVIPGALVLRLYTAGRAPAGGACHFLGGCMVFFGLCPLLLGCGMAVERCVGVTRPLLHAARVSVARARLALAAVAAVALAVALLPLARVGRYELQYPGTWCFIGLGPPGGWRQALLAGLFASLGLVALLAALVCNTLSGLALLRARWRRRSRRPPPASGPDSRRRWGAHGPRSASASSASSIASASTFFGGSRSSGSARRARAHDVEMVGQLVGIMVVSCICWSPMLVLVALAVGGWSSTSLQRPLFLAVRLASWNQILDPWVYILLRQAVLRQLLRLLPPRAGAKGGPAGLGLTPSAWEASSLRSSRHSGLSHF
Procedure: Briefly, the antagonist properties of compounds are assessed by their ability to inhibit the mobilisation of intracellular calcium ([Ca^2+]i) in response to activation of EP1 or EP3 receptors by the natural agonist hormone prostaglandin E2 (PGE2). Increasing concentrations of antagonist reduce the amount of calcium that a given concentration of PGE2 can mobilise. The net effect is to displace the PGE2 concentration-effect curve to higher concentrations of PGE2. The amount of calcium produced is assessed using a calcium-sensitive fluorescent dye such as Fluo-4, AM and a suitable instrument such as a Fluorimetric Imaging Plate Reader (FLIPR). Increasing amounts of [Ca^2+]i produced by receptor activation increase the amount of fluorescence produced by the dye and give rise to an increasing signal. The signal may be detected using the FLIPR instrument and the data generated may be analysed with suitable curve-fitting software.
The human EP1 or EP3 calcium mobilisation assay (hereafter referred to as ‘the calcium assay’) utilises Chinese hamster ovary-K1(CHO-K1) cells into which a stable (pCIN; BioTechniques 20 (1996): 102-110) vector containing either EP1 or EP3 cDNA has previously been transfected. Cells are cultured in suitable flasks containing culture medium such as DMEM:F-12 supplemented with 10% v/v foetal calf serum, 2 mM L-glutamine, 0.25 mg/ml geneticin, 100 μM flurbiprofen and 10 μg/ml puromycin.
For assay, cells are harvested using a proprietary reagent that dislodges cells such as Versene. Cells are re-suspended in a suitable quantity of fresh culture media for introduction into a 384-well plate. Following incubation for 24 hours at 37° C. the culture media is replaced with a medium containing Fluo-4 and the detergent pluronic acid, and a further incubation takes place. Concentrations of compounds are then added to the plate in order to construct concentration-effect curves. This may be performed on the FLIPR in order to assess the agonist properties of the compounds. Concentrations of PGE2 are then added to the plate in order to assess the antagonist properties of the compounds.
The data so generated may be analysed by means of a computerised curve-fitting routine. The concentration of compound that elicits a half-maximal inhibition of the calcium mobilisation induced by PGE2 (pIC50) may then be estimated.

Row | SMILES | Ki [nM]
1 | Cc1cccc(Cl)c1NC(=O)c1ccc(Cc2cc(Cl)ccc2OCc2ccccc2)o1 [Example 74, N-(2-Chloro-6-methylphenyl)-5-({5-chloro-2-[(phenylmethyl)oxy]-phenyl}methyl)-2-furancarboxamide] | < 1000
2 | O=C(Nc1ccccc1-c1ccccc1)c1ccc(Cc2cc(Cl)ccc2OCc2ccccc2)o1 [Example 75, N-2-biphenylyl-5-({5-chloro-2-[(phenylmethyl)oxy]-phenyl}methyl)-2-furancarboxamide] | > 1000
3 | O=C(Nc1ccccc1Br)c1ccc(Cc2cc(Cl)ccc2OCc2ccccc2)o1 [Example 76, N-(2-bromophenyl)-5-({5-chloro-2-[(phenylmethyl)oxy]-phenyl}methyl)-2-furancarboxamide] | < 1000
4 | O=C(c1ccc(Cc2cc(Cl)ccc2OCc2ccccc2)o1)n1cnc2ccccc21 [Example 77, 1-{[5-({5-Chloro-2-[(phenylmethyl)oxy]-phenyl}methyl)-2-furanyl]carbonyl}-1H-benzimidazole] | < 1000
5 | NC(=O)c1ccc(Cc2cc(Cl)ccc2OCc2ccccc2)o1 [Example 78, 5-({5-Chloro-2-[(phenylmethyl)oxy]-phenyl}methyl)-2-furancarboxamide] | < 1000
6 | O=C(Nc1c(F)cccc1F)c1ccc(Cc2cc(Cl)ccc2OCc2ccccc2)o1 [Example 79, 5-({5-Chloro-2-[(phenylmethyl)oxy]-phenyl}methyl)-N-(2,6-difluorophenyl)-2-furancarboxamide] | ≤ 10
7 | CC(C)COc1ccc(Cl)cc1Cc1ccc(C(=O)Nc2c(F)cccc2F)o1 [Example 80, 5-({5-Chloro-2-[(2-methylpropyl)oxy]-phenyl}methyl)-N-(2,6-difluorophenyl)-2-furancarboxamide] | < 1000
8 | O=C(Nc1c(F)cccc1F)c1ccc(Cc2cc(Cl)ccc2OCc2ccccc2F)o1 [Example 81, 5-[(5-Chloro-2-{[(2-fluorophenyl)methyl]oxy}phenyl)methyl]-N-(2,6-difluorophenyl)-2-furancarboxamide] | < 1000
9 | O=C(Nc1c(F)cccc1F)c1ccc(Cc2cc(Cl)ccc2OCc2ccc(F)cc2)o1 [Example 82, 5-[(5-Chloro-2-{[(4-fluorophenyl)methyl]oxy}-phenyl)methyl]-N-(2,6-difluorophenyl)-2-furancarboxamide] | < 1000
10 | O=C(Nc1c(F)cccc1F)c1ccc(Cc2cc(Cl)ccc2OCc2c(F)cc(F)cc2F)o1 [Example 83, 5-[(5-Chloro-2-{[(2,4,6-trifluorophenyl)methyl]oxy}-phenyl)methyl]-N-(2,6-difluorophenyl)-2-furancarboxamide] | < 1000
11 | O=C(Nc1c(F)cccc1F)c1ccc(Cc2cc(Cl)ccc2OCc2c(F)cccc2F)o1 [Example 85, 5-[(5-Chloro-2-{[(2,6-difluorophenyl)methyl]oxy}-phenyl)methyl]-N-(2,6-difluorophenyl)-2-furancarboxamide] | < 1000
12 | O=C(Nc1c(F)cccc1F)c1ccc(Cc2cc(Cl)ccc2OCc2ccc(F)c(F)c2)o1 [Example 86, 5-[(5-Chloro-2-{[(3,4-difluorophenyl)methyl]oxy}-phenyl)methyl]-N-(2,6-difluorophenyl)-2-furancarboxamide] | < 1000
13 | O=C(Nc1c(F)cccc1F)c1ccc(Cc2cc(Cl)ccc2OCc2cccc(F)c2F)o1 [Example 87, 5-[(5-Chloro-2-{[(2,3-difluorophenyl)methyl]oxy}-phenyl)methyl]-N-(2,6-difluorophenyl)-2-furancarboxamide] | < 1000
14 | O=C(Nc1c(F)cccc1F)c1ccc(Cc2cc(Cl)ccc2OCc2cc(F)c(F)cc2F)o1 [Example 88, 5-[(5-Chloro-2-{[(2,4,5-trifluorophenyl)methyl]oxy}-phenyl)methyl]-N-(2,6-difluorophenyl)-2-furancarboxamide] | < 1000
15 | O=C(Nc1c(F)cccc1F)c1ccc(Cc2cc(Cl)ccc2OCc2ccc(Cl)cc2Cl)o1 [Example 89, 5-[(5-Chloro-2-{[(2,4-dichlorophenyl)methyl]-oxy}phenyl)methyl]-N-(2,6-difluorophenyl)-2-furancarboxamide] | < 1000
16 | O=C(Nc1c(F)cccc1F)c1ccc(Cc2cc(Cl)ccc2OCc2ccc(Cl)cc2)o1 [Example 90, 5-[(5-Chloro-2-{[(4-chlorophenyl)methyl]oxy}-phenyl)methyl]-N-(2,6-difluorophenyl)-2-furancarboxamide] | < 1000
17 | O=C(Nc1c(F)cccc1F)c1ccc(Cc2cc(Cl)ccc2OCc2ccccn2)o1 [Example 91, 5-({5-Chloro-2-[(2-pyridinylmethyl)oxy]phenyl}methyl)-N-(2,6-difluorophenyl)-2-furancarboxamide] | < 1000
18 | O=C(Nc1c(F)cccc1F)c1ccc(Cc2cc(Cl)ccc2OCc2cccnc2)o1 [Example 92, 5-({5-Chloro-2-[(3-pyridinylmethyl)oxy]phenyl}methyl)-N-(2,6-difluorophenyl)-2-furancarboxamide] | < 1000
19 | CCCOc1ccc(Cl)cc1Cc1ccc(C(=O)Nc2c(F)cccc2F)o1 [Example 93, 5-{[5-Chloro-2-(propyloxy)phenyl]methyl}-N-(2,6-difluorophenyl)-2-furancarboxamide] | < 1000
20 | O=C(Nc1c(F)cccc1F)c1ccc(Cc2cc(Cl)ccc2OCC2CC2)o1 [Example 94, 5-({5-Chloro-2-[(cyclopropylmethyl)oxy]-phenyl}methyl)-N-(2,6-difluorophenyl)-2-furancarboxamide] | < 1000
21 | O=C(Nc1c(F)cccc1F)c1ccc(Cc2cc(Cl)ccc2OC2CCCC2)o1 [Example 95, 5-{[5-Chloro-2-(cyclopentyloxy)phenyl]-methyl}-N-(2,6-difluorophenyl)-2-furancarboxamide] | < 1000
22 | O=C(Nc1c(F)cccc1F)c1ccc(Cc2cc(Cl)ccc2OCC2CCCCC2)o1 [Example 96, 5-({5-Chloro-2-[(cyclohexylmethyl)oxy]-phenyl}methyl)-N-(2,6-difluorophenyl)-2-furancarboxamide] | < 1000
23 | CCC(CC)COc1ccc(Cl)cc1Cc1ccc(C(=O)Nc2c(F)cccc2F)o1 [Example 97, 5-({5-Chloro-2-[(2-ethylbutyl)oxy]phenyl}meth-yl)-N-(2,6-difluorophenyl)-2-furancarboxamide] | < 1000
24 | COc1ccc2[nH]c(-c3ccc(Cc4cc(Cl)ccc4OCc4ccccc4)o3)nc2c1 [Example 100, 2-[5-({5-Chloro-2-[(phenylmethyl)oxy]phenyl}methyl)-2-furanyl]-5-(methyloxy)-1H-benzimidazole] | < 1000
25 | Clc1ccc(OCc2ccccc2)c(Cc2ccc(-c3nc4cscc4[nH]3)o2)c1 [Example 101, 2-[5-({5-Chloro-2-[(phenylmethyl)oxy]phenyl}methyl)-2-furanyl]-1H-thieno[3,4-d]imidazole] | < 1000
26 | Clc1ccc(OCc2ccccc2)c(Cc2ccc(-c3nc4nccnc4[nH]3)o2)c1 [Example 102, 2-[5-({5-Chloro-2-[(phenylmethyl)oxy]phenyl}methyl)-2-furanyl]-1H-imidazo[4,5-b]pyrazine] | < 1000
27 | CN1CCN(c2ccc3[nH]c(-c4ccc(Cc5cc(Cl)ccc5OCc5ccccc5)o4)nc3c2)CC1 [Example 103, 2-[5-({5-Chloro-2-[(phenylmethyl)oxy]phenyl}methyl)-2-furanyl]-5-(4-methyl-1-piperazinyl)-1H-benzimidazolehydrochloride] | < 1000
28 | CC(C)COc1ccc(Cl)cc1Cc1ccc(-c2nc3cscc3[nH]2)o1 [Example 109, 2-[5-({5-Chloro-2-[(2-methylpropyl)oxy]-phenyl}methyl)-2-furanyl]-1H-thieno[3,4-d]imidazole] | < 1000
29 | CC(C)COc1ccc(Cl)cc1Cc1ccc(-c2nc3ccc(Br)cc3[nH]2)o1 [Example 110, 5-Bromo-2-[5-({5-chloro-2-[(2-methylpropyl)oxy]-phenyl}methyl)-2-furanyl]-1H-benzimidazolehydrochloride] | > 1000
30 | CCN1CCN(c2ccc3nc(-c4ccc(Cc5cc(Cl)ccc5OCC(C)C)o4)[nH]c3c2)CC1 [Example 114, 2-[5-({5-Chloro-2-[(2-methylpropyl)oxy]-phenyl}methyl)-2-furanyl]-5-(4-ethyl-1-piperazinyl)-1H-benzimidazoletrihydrochloride] | < 1000
